{
  "source": "patent US20160264568A1",
  "about": "“SUBSTITUTED TRIAZOLOPYRIDINES HAVING ACTIVITY AS MPS-1 INHIBITORS” (BAYER PHARMA AKTIENGESELLSCHAFT, priority 2013, published 2016)",
  "key": {"[1]": {"target": "T1, human kinase Mps-1 (Homo sapiens, UniProt P33981)", "T1 construct": "N-terminally GST-tagged human full length recombinant Mps-1 kinase; GST (N); purchased Invitrogen, Karslruhe, Germany PV4071", "T1 sequence (P33981 1-857)": "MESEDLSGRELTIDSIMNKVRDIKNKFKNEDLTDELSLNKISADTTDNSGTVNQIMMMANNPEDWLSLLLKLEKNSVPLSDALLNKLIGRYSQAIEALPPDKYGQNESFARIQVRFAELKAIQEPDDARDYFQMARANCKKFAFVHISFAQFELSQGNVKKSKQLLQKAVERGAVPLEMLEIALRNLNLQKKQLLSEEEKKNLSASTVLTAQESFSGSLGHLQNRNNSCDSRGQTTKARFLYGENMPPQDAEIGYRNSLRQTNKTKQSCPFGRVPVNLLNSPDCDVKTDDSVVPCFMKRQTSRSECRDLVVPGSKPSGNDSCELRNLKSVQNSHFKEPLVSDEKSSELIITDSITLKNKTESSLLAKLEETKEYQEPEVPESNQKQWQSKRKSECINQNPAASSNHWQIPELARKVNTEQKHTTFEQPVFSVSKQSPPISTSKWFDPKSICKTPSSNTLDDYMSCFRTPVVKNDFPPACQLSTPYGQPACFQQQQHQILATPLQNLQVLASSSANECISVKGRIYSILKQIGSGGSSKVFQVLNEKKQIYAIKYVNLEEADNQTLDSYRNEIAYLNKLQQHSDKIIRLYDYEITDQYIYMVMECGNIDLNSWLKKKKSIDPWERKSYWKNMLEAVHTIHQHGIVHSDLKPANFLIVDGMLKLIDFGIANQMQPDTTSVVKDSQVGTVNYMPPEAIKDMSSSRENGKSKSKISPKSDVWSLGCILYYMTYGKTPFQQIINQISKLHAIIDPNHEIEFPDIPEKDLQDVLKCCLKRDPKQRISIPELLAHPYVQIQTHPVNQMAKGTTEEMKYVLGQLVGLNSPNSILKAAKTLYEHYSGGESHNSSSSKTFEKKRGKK", "assay": "Mps-1 kinase assay (TR-FRET)", "type": "biochemical", "experimental": "The human kinase Mps-1 phosphorylates a biotinylated substrate peptide. Detection of the phosphorylated product is achieved by time-resolved fluorescence resonance energy transfer (TR-FRET) from Europium-labelled anti-phospho-Serine/Threonine antibody as donor to streptavidin labelled with cross-linked allophycocyanin (SA-XLent) as acceptor. Compounds are tested for their inhibition of the kinase activity.\nN-terminally GST-tagged human full length recombinant Mps-1 kinase (purchased from Invitrogen, Karslruhe, Germany, cat. no PV4071) was used. […]\nThe resulting mixture was incubated 1 h at 22° C. to allow the binding of the phosphorylated peptide to the anti-phospho(Ser/Thr)-Europium-antibody. Subsequently the amount of phosphorylated substrate was evaluated by measurement of the resonance energy transfer from the Europium-labelled anti-phospho(Ser/Thr) antibody to the Streptavidin-XLent. Therefore, the fluorescence emissions at 620 nm and 665 nm after excitation at 350 nm was measured in a Viewlux TR-FRET reader (PerkinElmer LAS, Rodgau-Jugesheinn, Germany). The “blank-corrected normalized ratio” (a Viewlux specific readout, similar to the traditional ratio of the emissions at 665 nm and at 622 nm, in which blank and Eu-donor crosstalk are subtracted from the 665 nm signal before the ratio is calculated) was taken as the measure for the amount of phosphorylated substrate. […]"}, "[2]": {"system": "HeLa human cervical tumor cells", "assay": "HeLa cell proliferation assay (crystal violet)", "type": "cell-based", "conditions": "96 h, 4 days incubation, crystal violet staining, read-out: Inhibition of cell proliferation, cell Line: HeLa IC50", "experimental": "Cultivated tumor cells (MCF7, hormone dependent human mammary carcinoma cells, ATCC HTB22; NCI-H460, human non-small cell lung carcinoma cells, ATCC HTB-177; DU 145, hormone-independent human prostate carcinoma cells, ATCC HTB-81; HeLa-MaTu, human cervical carcinoma cells, EPO-GmbH, Berlin; HeLa-MaTu-ADR, multidrug-resistant human cervical carcinoma cells, EPO-GmbH, Berlin; HeLa human cervical tumor cells, ATCC CCL-2; B16F10 mouse melanoma cells, ATCC CRL-6475) were plated at a density of 5000 cells/well (MCF7, DU145, HeLa-MaTu-ADR), 3000 cells/well (NCI-H460, HeLa-MaTu, HeLa), or 1000 cells/well (B16F10) in a 96-well multititer plate in 200 μl of their respective growth medium supplemented 10% fetal calf serum. […] Cell proliferation was determined by staining the cells with crystal violet: the cells were fixed by adding 20 μl/measuring point of an 11% glutaric aldehyde solution for 15 minutes at room temperature. […] The extinction of the stained cells was determined by photometry at a wavelength of 595 nm. The change of cell number, in percent, was calculated by normalization of the measured values to the extinction values of the zero-point plate (=0%) and the extinction of the untreated (0 μm) cells (=100%). The […] values were determined by means of a 4 parameter fit using the company's own software. […]"}, "[3]": {"assay": "Metabolic stability in vitro, rat liver microsomes", "type": "in vitro ADME", "conditions": "maximal oral bioavailability calculated from microsomal half-life, 1 μM compound", "experimental": "(§1) The metabolic stability of test compounds in vitro was determined by incubating them at 1 μM with a suspension of liver microsomes in 100 mM phosphate buffer, pH7.4 (NaH2PO4xH2O+Na2HPO4x2H2O) at a protein concentration of 0.5 mg/mL and at 37° C. The reaction was activated by adding a co-factor mix containing 1.2 mg NADP, 3 IU glucose-6-phosphate dehydrogenase, 14.6 mg glucose-6-phosphate and 4.9 mg MgCl2 in phosphate buffer, pH 7.4. Organic solvent in the incubations was limited to <0.2% dimethylsulfoxide (DMSO) and <1% methanol. During incubation, the microsomal suspensions were continuously shaken and aliquots were taken at 2, 8, 16, 30, 45 and 60 min, to which equal volumes of cold methanol were immediately added. Samples were frozen at −20° C. over night, subsequently centrifuged for 15 minutes at 3000 rpm and the supernatant was analyzed with an Agilent 1200 HPLC-system with LCMS/MS detection.\n(§2) The half-life of a test compound was determined from the concentration-time plot. From the half-life the intrinsic clearances were calculated. Together with the additional parameters liver blood flow, specific liver weight and microsomal protein content the hepatic in vivo blood clearance (CL) and the maximal oral bioavailability (Fmax) were calculated for the different species. […]"}, "[4]": {"assay": "Metabolic stability in vitro, human liver microsomes", "type": "in vitro ADME", "conditions": "maximal oral bioavailability calculated from microsomal half-life, 1 μM compound", "experimental": "as §1, §2"}, "[5]": {"assay": "Metabolic stability in vitro, dog liver microsomes", "type": "in vitro ADME", "conditions": "maximal oral bioavailability calculated from microsomal half-life, 1 μM compound", "experimental": "as §1, §2"}},
  "note": "pIC50: −log10 of the molar value. Like-named read-outs stand apart in the source and are kept apart here.",
  "data": [
    {"molecule": "COc1cc2c(cc1Nc1nc3ccc(-c4ccc(NC(=O)[C@H](C)c5ccc(F)cc5)cc4)cn3n1)CCS2(=O)=O", "note": "[Example01.01, (2R)-2-(4-fluorophenyl)-N-(4-{2-[(6-methoxy-1,1-dioxido-2,3-dihydro-1-benzothiophen-5-yl)amino][1,2,4]triazolo[1,5-a]pyridin-6-yl}phenyl)propanamide]", "values": [
      {"measurement": "pIC50", "setting": "[1]; 10 μM ATP, read-out: Mps-1 Inhibition, IC50 (Assay with 10 μM ATP)", "result": "> 9.00"},
      {"measurement": "pIC50", "setting": "[1]; 2 mM ATP, read-out: Mps-1 Inhibition, IC50 (Assay with 2 mM ATP)", "result": 8.80},
      {"measurement": "pIC50", "setting": "[2]", "result": "> 6.40"},
      {"measurement": "Rat liver microsomes; Fmax [%]", "setting": "[3]", "result": 96, "unit": "%"},
      {"measurement": "Human liver microsomes; Fmax [%]", "setting": "[4]", "result": 83, "unit": "%"},
      {"measurement": "Dog liver microsomes; Fmax [%]", "setting": "[5]", "result": 65, "unit": "%"}
    ]}
  ]
}
